The text below walks through data of patent US7615651B2, “Diaryl, dipyridinyl and aryl-pyridinyl derivatives and uses thereof” (Pfizer Inc., priority 2006, dated 2009).

Data set [1] in a line: Spontaneous food intake model. Conditions: rats dosed before onset of dark cycle, compared with vehicle. The data set is classed as in vivo, Sprague-Dawley rats. The procedure:
Male Sprague-Dawley rats may be obtained from Charles River Laboratories, Inc. (Wilmington, Mass.). The rats were individually housed and fed powdered chow. They were maintained on a 12 hour light/dark cycle and received food and water ad libitum. The animals were acclimated to the vivarium for a period of one week before testing is conducted. Rats were transferred to individual test cages 30 hours before the study. The rats were administered test compound or vehicle alone (no compound) 15-30 minutes prior to the onset of the dark cycle. The test compounds were dosed at ranges between 0.1 and 100 mg/kg depending upon the compound. The standard vehicle was 0.5% (w/v) methylcellulose or 30% β-cyclodextrin in water and the standard route of administration was oral. However, different vehicles and routes of administration are used to accommodate various compounds when required. Food intake was monitored using an automated Columbus Instruments system (Columbus, Ohio). Individual rat food intake was recorded continuously at 10-minute intervals, starting at the time of dosing, for a period of at least 12 hours. Compound efficacy was determined by comparing the food intake pattern of compound-treated rats to vehicle.

The next data set has as its target T1, opioid receptor mu (Homo sapiens, UniProt P35372).
T1 construct: expressed in transfected cells
Nature of the data set: GTPγ[35S] binding assay, antagonism of endorphin. The data set is classed as biochemical. The procedure, abridged:
(§1)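 Membranes with […] GTPγ[35S] in Tris pH 7.4 buffer with MgCl2, NaCl, 30 μM GDP; antagonist (10^−10–10^−5 M) preincubated 10 min at 30 °C, then challenged with BW-373U86 1 nM (delta), dynorphin-A 10 nM (kappa) or endorphin 1 μM (mu) for 1 h at 30 °C. Scintillation read-out; Ki derived.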
Background: Binding of GTPγS marks nucleotide exchange on a G protein.

Another data set has as its target T2, opioid receptor kappa (Homo sapiens, UniProt P41145).
T2 construct: expressed in transfected cells
Nature of the data set: GTPγ[35S] binding assay, antagonism of dynorphin-A. The data set is classed as biochemical. The procedure, abridged:
as §1

Another data set has as its target T3, opioid receptor delta (Homo sapiens, UniProt P41143).
T3 construct: expressed in transfected cells
Description: GTPγ[35S] binding assay, antagonism of BW-373U86. The data set is classed as biochemical. Put shortly:
as §1

The mark [2] stands for this setting: average Ki, antagonism of endorphin (1 μM) stimulated GTPγ[35S] binding, mu opioid receptor membranes, read-out: Mu functional (GTPγ[35S] binding Ki).
Where [3] appears, read: average Ki, antagonism of dynorphin-A (10 nM) stimulated GTPγ[35S] binding, kappa opioid receptor membranes, read-out: Kappa functional (GTPγ[35S] binding Ki).
[4] abbreviates: average Ki, antagonism of BW-373U86 (1 nM) stimulated GTPγ[35S] binding, delta opioid receptor membranes, read-out: Delta functional (GTPγ[35S] binding Ki).
The mark [5] stands for this setting: read-out: Mu functional Ki (GTPγ[35S] binding).
Where [6] appears, read: read-out: Kappa functional Ki (GTPγ[35S] binding).
Where [7] appears, read: read-out: Delta functional Ki (GTPγ[35S] binding).
The mark [8] stands for this setting: average Ki, antagonism of endorphin (1 μM) at mu opioid receptor membranes, read-out: Mu functional Ki (GTPγ[35S] binding).
The mark [9] stands for this setting: average Ki, antagonism of dynorphin-A (10 nM) at kappa opioid receptor membranes, read-out: Kappa functional Ki (GTPγ[35S] binding).
The mark [10] stands for this setting: average Ki, antagonism of BW-373U86 (1 nM) at delta opioid receptor membranes, read-out: Delta functional Ki (GTPγ[35S] binding).
Setting [11] is: average Ki, antagonism of endorphin (1 μM) at mu opioid receptor, read-out: Mu functional Ki (GTPγ[35S] binding).
Setting [12] is: average Ki, antagonism of dynorphin-A (10 nM) at kappa opioid receptor, read-out: Kappa functional Ki (GTPγ[35S] binding).
Setting [13] is: average Ki, antagonism of BW-373U86 (1 nM) at delta opioid receptor, read-out: Delta functional Ki (GTPγ[35S] binding).
Setting [14] is: read-out: Mu functional (GTPγ[35S] binding Ki).
Where [15] appears, read: read-out: Kappa functional (GTPγ[35S] binding Ki).
[16] abbreviates: read-out: Delta functional (GTPγ[35S] binding Ki).

Structures can show the parent of a compound that is named as a salt. Where two headings read alike, the source gives them in different places.

T1 sequence (P35372 whole entry): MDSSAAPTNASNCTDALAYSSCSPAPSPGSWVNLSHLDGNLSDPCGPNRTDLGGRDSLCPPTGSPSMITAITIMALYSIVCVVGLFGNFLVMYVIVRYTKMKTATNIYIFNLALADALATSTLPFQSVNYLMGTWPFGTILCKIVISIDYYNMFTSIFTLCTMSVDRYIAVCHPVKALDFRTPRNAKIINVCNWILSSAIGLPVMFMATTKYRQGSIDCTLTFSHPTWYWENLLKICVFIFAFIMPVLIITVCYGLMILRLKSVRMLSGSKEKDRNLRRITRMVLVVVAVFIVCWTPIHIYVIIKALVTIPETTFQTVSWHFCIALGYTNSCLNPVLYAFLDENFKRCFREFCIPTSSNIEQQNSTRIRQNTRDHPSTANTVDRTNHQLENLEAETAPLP
T2 sequence (P41145 whole entry): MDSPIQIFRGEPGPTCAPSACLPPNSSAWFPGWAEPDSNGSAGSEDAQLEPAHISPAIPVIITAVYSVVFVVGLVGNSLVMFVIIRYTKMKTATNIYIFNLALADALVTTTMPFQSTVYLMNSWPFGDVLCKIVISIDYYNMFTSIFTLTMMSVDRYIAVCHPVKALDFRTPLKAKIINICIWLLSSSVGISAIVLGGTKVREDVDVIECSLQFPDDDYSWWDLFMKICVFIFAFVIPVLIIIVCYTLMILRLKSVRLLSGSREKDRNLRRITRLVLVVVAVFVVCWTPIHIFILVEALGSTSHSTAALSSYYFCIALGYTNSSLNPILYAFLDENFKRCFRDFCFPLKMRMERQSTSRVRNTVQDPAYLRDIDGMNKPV
T3 sequence (P41143 whole entry): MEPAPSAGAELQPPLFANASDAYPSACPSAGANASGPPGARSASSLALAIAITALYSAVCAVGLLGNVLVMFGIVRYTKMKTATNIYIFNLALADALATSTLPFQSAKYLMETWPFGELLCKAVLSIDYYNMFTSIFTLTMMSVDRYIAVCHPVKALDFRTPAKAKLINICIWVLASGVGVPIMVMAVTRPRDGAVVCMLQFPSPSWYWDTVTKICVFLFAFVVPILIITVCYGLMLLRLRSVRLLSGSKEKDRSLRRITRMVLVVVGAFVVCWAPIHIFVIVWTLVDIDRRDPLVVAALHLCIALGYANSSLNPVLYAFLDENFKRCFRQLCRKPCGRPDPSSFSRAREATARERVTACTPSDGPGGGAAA

One may read the melting point as the temperature of the solid-liquid transition. The compound `Cc1cc(C(N)=O)c(F)cc1-c1ccc(CNCCC(C)C)c(F)c1.Cl.O` (hydrate or solvate) came in with a melting point of 229 °C.
For the compound `CC(C)CCNCc1ccc(-c2cc(C(N)=O)ccc2F)c(F)c1.Cl` [1A-07], the food intake result in data set [1] is “significant reduction in food intake”. The Ki at opioid receptor mu (setting [2]) is 14.5 nM; on opioid receptor kappa (setting [3]), 14.3 nM; at opioid receptor delta (setting [4]) it was 9.49 nM.
As for `Cc1cc(C(N)=O)ccc1-c1ccc(CNCCC(C)C)cc1F.Cl` [1B-03], the food intake result in data set [1] is on record as “significant reduction in food intake”. The Ki at opioid receptor mu (setting [2]) is 8.96 nM; at opioid receptor kappa (setting [3]) it was 3.32 nM; on opioid receptor delta (setting [4]), 5.09 nM.
On the same counts, the results for `Cc1cc(C(N)=O)ccc1-c1ccc(CNC2Cc3ccccc3C2)cc1.Cl` [4B-04] are “significant reduction in food intake”, 0.0925 nM, 0.406 nM and 0.185 nM.
In the case of `Cc1cc(C(N)=O)ccc1-c1ccc(CNCCCc2ccccc2)cc1.Cl` [4B-08], the food intake result in data set [1] is reported as “significant reduction in food intake”. The Ki on opioid receptor mu (setting [2]) worked out at 2.84 nM; at opioid receptor kappa (setting [3]), 2.19 nM; on opioid receptor delta (setting [4]) it was 0.838 nM.
Regarding `Cc1cc(C)n(CC(C)NCc2ccc(-c3cccc(C(N)=O)c3)c(Cl)c2)n1` (stereo not drawn) [6A-05], the Ki on opioid receptor mu (setting [5]) amounted to 5.25 nM; on opioid receptor kappa (setting [6]), 27.2 nM; on opioid receptor delta (setting [7]), 17.6 nM.
As for `COCCNCc1ccc(-c2cccc(C(N)=O)c2)c(Cl)c1` [6A-07], the Ki on opioid receptor mu (setting [8]) came out at 78.4 nM; at opioid receptor kappa (setting [9]), 58.1 nM; at opioid receptor delta (setting [10]) it was 0.0652 nM.
`Cc1ncsc1CCNCc1ccc(-c2cccc(C(N)=O)c2)c(Cl)c1` [6A-08]: the values for the Ki on opioid receptor mu (setting [5]), at opioid receptor kappa (setting [6]) and on opioid receptor delta (setting [7]) were 8.62 nM, 32.1 nM and 4.92 nM, respectively.
`CC(C)CCNCc1ccc(-c2cccc(-c3ncn[nH]3)c2)cc1` [7A-01]: the values for the Ki on opioid receptor mu (setting [5]), on opioid receptor kappa (setting [6]) and on opioid receptor delta (setting [7]) were 8.31 nM, 8.43 nM and 26.1 nM, respectively.
For the compound `CC(C)CCNCc1ccc(-c2cc(-c3ncn[nH]3)ccc2F)cc1` [7A-02], the Ki at opioid receptor mu (setting [8]) stood at 1.59 nM; at opioid receptor kappa (setting [9]), 1.77 nM; on opioid receptor delta (setting [10]), 5.26 nM.
As to `CC(C)CCNCc1ccc(-c2cc(-c3ncn[nH]3)ccc2F)c(F)c1` [7A-03], the Ki at opioid receptor mu (setting [5]) stood at 4.07 nM; at opioid receptor kappa (setting [6]) it was 2.71 nM; at opioid receptor delta (setting [7]) it was 12.5 nM.
On the same counts, the results for `CC(C)CCNCc1ccc(-c2ccc(-c3ncn[nH]3)cc2)cc1` [7B-01] are 10.3 nM, 35 nM and 311 nM.
For `Cc1cc(CNCCC(C)C)ccc1-c1ccc(-c2ncn[nH]2)cc1` [7B-02], in that order: 0.72 nM, 4.4 nM and 3.71 nM.
Consider `Cc1cc(-c2ncn[nH]2)ccc1-c1ccc(CNCCC(C)C)cc1F` [7B-03], for which the Ki amounted to 1.7 nM at opioid receptor mu (setting [5]), 9.25 nM on opioid receptor kappa (setting [6]) and 28.2 nM at opioid receptor delta (setting [7]).
For `CC(C)CCNCc1ccc(-c2ccc(-c3ncn[nH]3)cc2)c(F)c1` [7B-04], in that order: 2.53 nM, 13.6 nM and 8.08 nM.
On the same counts, the results for `CC(C)CCNCc1ccc(-c2ccc(-c3ncn[nH]3)cc2C(F)(F)F)cc1` [7B-05] are 14.2 nM, 47.4 nM and 29.7 nM.
In the case of `Cc1cc(CNCCC(C)C)ccc1-c1cccc(NS(C)(=O)=O)c1` [8A-02], the Ki at opioid receptor mu (setting [11]) was found to be 1.15 nM; on opioid receptor kappa (setting [12]) it was 15.3 nM; on opioid receptor delta (setting [13]), 10.4 nM.
On the same counts, the results for `CC(C)CCNCc1ccc(-c2cccc(NS(C)(=O)=O)c2)c(C#N)c1` [8A-03] are 1.16 nM, 13.7 nM and 18.4 nM.
Consider `CS(=O)(=O)Nc1ccc(-c2ccc(CNC3Cc4ccccc4C3)c(F)c2)cc1` [8B-02], for which the Ki at opioid receptor mu (setting [5]) is 9.29 nM; at opioid receptor kappa (setting [6]), 582 nM; at opioid receptor delta (setting [7]) it was 39.8 nM.
For `Cc1cc(C(N)=O)ccc1-c1cc(F)c(CNCCC(C)C)c(F)c1.Cl` [E1-01, 3′,5′Difluoro-2-methyl-4′-[(3-methyl-butylamino)-methyl]-biphenyl-4-carboxylic acid amide hydrochloride salt], in data set [1], the food intake result is recorded as “significant reduction in food intake”. The Ki on opioid receptor mu (setting [14]) is 2.1 nM; on opioid receptor kappa (setting [15]), 2.64 nM; at opioid receptor delta (setting [16]), 1.7 nM.
On the same counts, the results for `Cc1cc(CNCCC(C)C)ccc1-c1ccc(C(N)=O)cc1C.Cl` [E2-01, 2,2′-Dimethyl-4′-[(3-methyl-butylamino)-methyl]-biphenyl-4-carboxylic acid amide hydrochloride salt] are “significant reduction in food intake”, 0.886 nM, 2.06 nM and 1.38 nM.
On the same counts, the results for `Cc1cc(C(N)=O)ccc1-c1ccc(CNCCC(C)C)c(Cl)c1` [E3-01, hydrochloride salt] are “significant reduction in food intake”, 2.82 nM, 1.73 nM and 1.53 nM.
As to `Cc1cc(C(N)=O)ccc1-c1ccc(CNCCC(C)C)cc1` [E4-01, 2-Methyl-4′-[(3-methyl-butylamino)-methyl]-biphenyl-4-carboxylic acid amide], the food intake entry in data set [1] is “significant reduction in food intake”. The figures for the Ki at opioid receptor mu (setting [2]), at opioid receptor kappa (setting [3]) and at opioid receptor delta (setting [4]) were 6.5 nM, 2.4 nM and 20 nM, respectively.
Regarding `Cc1cc(C(N)=O)ccc1-c1ccc(CNCCC(C)C)cc1` [E4-02, (4′-carbamoyl-2′-methyl-biphenyl-4-ylmethyl)-(3-methyl-butyl)-ammonium chloride], the Ki is 6.2 nM on opioid receptor mu (setting [14]), 2.16 nM on opioid receptor kappa (setting [15]) and 7.91 nM on opioid receptor delta (setting [16]).
Take `Cc1cc(-c2nnc[nH]2)ccc1-c1ccc(C[NH2+]CCC(C)C)cc1` [E7-01, [2′-methyl-4′-(4H-[1,2,4]-triazol-3-yl)-biphenyl-4-ylmethyl]-(3-methyl-butyl)-amine hydrochloride]: the Ki was 3.9 nM at opioid receptor mu (setting [5]), 13 nM on opioid receptor kappa (setting [6]) and 11 nM on opioid receptor delta (setting [7]).
In the case of `Cc1cc(CNCCC(C)C)ccc1-c1ccc(NS(C)(=O)=O)cc1` [E8-01, (4′-Methenesulfonylamino-2-methyl-biphenyl-4-ylmethyl)-(3-methyl-butyl)-ammonium chloride], the results for the Ki at opioid receptor mu (setting [5]), at opioid receptor kappa (setting [6]) and at opioid receptor delta (setting [7]) were 42.1 nM, 281 nM and 32.6 nM, respectively.
